Measurements reported in publication PMC7383625, “Sequence‐Based Prediction of Promiscuous Acyltransferase Activity in Hydrolases” (Angewandte Chemie (International Ed. in English), 2020).

Assays:
Type in all cases: biochemical
Est8 [1] = target: T1, Est8 (uncultured bacterium, UniProt Z9EH37ATT5); experiment: GC of 2-phenylethyl acetate formation; conditions: acyl acceptor, 20 mM; vinyl acetate 200 mM as acyl donor; 200 mM buffer at pH optimum
T1 construct: bHSL esterase with N-terminal cap domain; crystal structure solved here
T1 sequence (Z9EH37ATT5 1-297): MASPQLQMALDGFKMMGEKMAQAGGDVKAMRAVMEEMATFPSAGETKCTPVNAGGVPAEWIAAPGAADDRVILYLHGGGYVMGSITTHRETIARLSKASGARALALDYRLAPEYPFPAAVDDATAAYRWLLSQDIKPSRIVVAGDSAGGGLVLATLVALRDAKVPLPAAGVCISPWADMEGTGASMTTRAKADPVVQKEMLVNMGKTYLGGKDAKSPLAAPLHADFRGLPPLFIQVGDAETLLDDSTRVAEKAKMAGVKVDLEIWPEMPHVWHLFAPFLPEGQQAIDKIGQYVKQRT

3FAK = target: T2, 3FAK (uncultured bacterium, UniProt Q0GMU2); experiment: colorimetric pNPA acyltransferase assay, pNP release at […] nm; conditions: acyl donor; benzyl alcohol or 2-phenylethanol as acyl acceptor
T2 construct: named only by PDB code; construct in supplement
T2 sequence (Q0GMU2 with tags, fused parts or gaps): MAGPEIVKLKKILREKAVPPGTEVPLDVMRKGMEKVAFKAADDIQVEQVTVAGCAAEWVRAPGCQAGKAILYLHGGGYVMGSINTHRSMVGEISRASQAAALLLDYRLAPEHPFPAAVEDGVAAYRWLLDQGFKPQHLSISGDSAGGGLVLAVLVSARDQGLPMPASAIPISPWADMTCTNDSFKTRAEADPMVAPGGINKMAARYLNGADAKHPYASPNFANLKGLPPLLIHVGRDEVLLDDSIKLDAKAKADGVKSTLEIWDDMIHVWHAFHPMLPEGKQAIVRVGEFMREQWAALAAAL

3K6K = target: T3, 3K6K (uncultured bacterium, UniProt Z9ICY0V5A2); experiment: as above; conditions: acyl donor; benzyl alcohol or 2-phenylethanol as acyl acceptor
T3 construct: named only by PDB code; construct in supplement
T3 sequence (Z9ICY0V5A2 15-328): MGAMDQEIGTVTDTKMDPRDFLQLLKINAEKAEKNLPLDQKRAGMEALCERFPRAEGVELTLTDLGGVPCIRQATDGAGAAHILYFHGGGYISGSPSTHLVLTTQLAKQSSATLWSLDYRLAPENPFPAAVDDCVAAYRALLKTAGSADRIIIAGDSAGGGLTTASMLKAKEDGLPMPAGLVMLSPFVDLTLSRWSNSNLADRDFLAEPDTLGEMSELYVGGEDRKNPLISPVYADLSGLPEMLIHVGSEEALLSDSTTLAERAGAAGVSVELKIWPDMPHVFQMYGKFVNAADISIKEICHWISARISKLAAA

Est8 [2] = target: T1, Est8; experiment: as above; conditions: acyl donor; benzyl alcohol or 2-phenylethanol as acyl acceptor
3ZWQ = target: T4, 3ZWQ (Pyrobaculum calidifontis, UniProt A3MVR4); experiment: as above; conditions: acyl donor; benzyl alcohol or 2-phenylethanol as acyl acceptor
T4 construct: gene Pcal_1307; named only by PDB code; construct in supplement
T4 sequence (A3MVR4 1-313): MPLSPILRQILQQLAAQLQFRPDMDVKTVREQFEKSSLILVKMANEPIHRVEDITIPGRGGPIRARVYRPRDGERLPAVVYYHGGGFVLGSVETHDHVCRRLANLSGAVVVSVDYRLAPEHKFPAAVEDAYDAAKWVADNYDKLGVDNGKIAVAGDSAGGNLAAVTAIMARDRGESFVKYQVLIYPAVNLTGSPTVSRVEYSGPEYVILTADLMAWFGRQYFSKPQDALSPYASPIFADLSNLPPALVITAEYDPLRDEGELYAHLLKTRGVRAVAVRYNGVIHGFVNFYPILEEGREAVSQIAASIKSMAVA

4XVC = target: T5, 4XVC (uncultured bacterium, UniProt Z9PJA9OM60); experiment: as above; conditions: acyl donor; benzyl alcohol or 2-phenylethanol as acyl acceptor
T5 construct: named only by PDB code; construct in supplement
T5 sequence (Z9PJA9OM60 21-317): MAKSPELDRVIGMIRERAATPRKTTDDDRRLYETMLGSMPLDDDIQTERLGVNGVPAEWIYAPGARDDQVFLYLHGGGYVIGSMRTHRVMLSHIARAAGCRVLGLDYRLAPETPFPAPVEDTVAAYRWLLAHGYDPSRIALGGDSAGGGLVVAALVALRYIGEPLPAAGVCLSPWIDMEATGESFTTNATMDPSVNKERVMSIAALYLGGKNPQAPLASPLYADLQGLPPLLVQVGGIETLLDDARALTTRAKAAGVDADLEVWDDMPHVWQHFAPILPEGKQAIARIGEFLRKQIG

Compound	GC of 2-phenylethyl acetate formation (Est8 [1])	colorimetric pNPA acyltransferase assay, pNP release at 405 nm (3FAK)	colorimetric pNPA acyltransferase assay, pNP release at 405 nm (3K6K)	colorimetric pNPA acyltransferase assay, pNP release at 405 nm (Est8 [2])	colorimetric pNPA acyltransferase assay, pNP release at 405 nm (3ZWQ)	colorimetric pNPA acyltransferase assay, pNP release at 405 nm (4XVC)
OCCc1ccccc1 [2-phenylethanol]	For Est8, product hydrolysis became more dominant than acyl transfer quickly	–	–	–	–	–
CC(=O)Oc1ccc([N+](=O)[O-])cc1 [pNPA]	–	reactions were carried out for Est8 and its homologues using both benzyl alcohol	reactions were carried out for Est8 and its homologues using both benzyl alcohol	reactions were carried out for Est8 and its homologues using both benzyl alcohol	3ZWQ showed three‐fold higher acyltransferase activity with benzyl alcohol, outperforming 1EVQ	reactions were carried out for Est8 and its homologues using both benzyl alcohol
